Molecular target: BCL2 (Homo sapiens (Human), UniProt P10415)
Assay: Molecular level activity test of anti-apoptotic protein BCL2 (HTRF, binding to Bim peptide)
Settings: HTRF, binding of BCL2 to Bim peptide; read-out: BCL2 nM (inhibitory activity, IC50)
Outline: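 Disruption of the BCL2/Bim peptide interaction is detected by homogeneous time-resolved fluorescence, using anti-His and streptavidin-XL665 reagents against His-tagged protein and biotin-tagged peptide. Compound exposure lasts 1 h before reagent addition; plates then sit 4 h at room temperature.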

BCL2, sequence (P10415 whole entry): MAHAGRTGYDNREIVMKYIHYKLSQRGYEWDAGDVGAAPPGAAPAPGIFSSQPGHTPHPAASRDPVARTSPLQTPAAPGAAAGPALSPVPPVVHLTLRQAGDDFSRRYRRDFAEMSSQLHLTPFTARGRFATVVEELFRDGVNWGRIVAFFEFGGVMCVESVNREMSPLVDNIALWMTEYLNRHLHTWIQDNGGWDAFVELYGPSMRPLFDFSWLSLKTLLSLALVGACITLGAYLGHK

SMILES | IC50
CC(C)c1ccccc1[C@@H]1CCCN1C1CC2(CCN(c3cc(N4CCOc5nc6[nH]ccc6cc54)c(C(=O)NS(=O)(=O)c4cc([N+](=O)[O-])c(NCC5(F)CCN(C(C)C)CC5)c5[nH]cnc45)cc3F)CC2)C1 [compound 084, (S)-2-(2,3-dihydropyrrolo[3′,2′:5,6]pyridino[2,3-b][1,4]oxazin-1 (6H)-yl)-5-fluoro-N-((7-(((4-fluoro-1-isopropylpiperid-4-yl)methyl)amino)-6-nitro-1H-benzo[d]imidazol-4-yl)sulfonyl)-4-(2-(2-(2-isopropylphenyl)pyrrolidin-1-yl)-7-azaspiro[3.5]non-7-yl)benzamide] | < 10 nM
COc1ccc(CN2CCN(C3CC4(CCN(c5cc(Oc6cnc7[nH]ccc7c6)c(C(=O)NS(=O)(=O)c6cc([N+](=O)[O-])c(NC[C@H]7CC[C@](C)(O)CC7)c7oc(C)cc67)cc5F)CC4)C3)[C@H](c3ccccc3C(C)C)C2)cc1 [compound 117, 2-((1H-pyrrolo[2,3-b]pyrid-5-yl)oxy)-5-fluoro-N-((7-((((1r, 4r)-4-hydroxy-4-methylcyclohexyl)methyl)amino)-2-methyl-6-nitrobenzofuran-4-yl)sulfonyl)-4-(2-((R)-2-(2-isopropylphenyl)-4-(4-methoxybenzyl)piperazin-1-yl)-7-azaspiro[3.5]non-7-yl)benzamide] | < 10 nM
COc1ccc(CN2CCN(C3CC4(CCN(c5cc(Oc6cnc7[nH]ccc7c6)c(C(=O)NS(=O)(=O)c6cc([N+](=O)[O-])c(NC[C@H]7COCCO7)c7scnc67)cc5F)CC4)C3)[C@H](c3ccccc3C(C)C)C2)cc1 [compound 125] | < 10 nM
COc1ccc(CN2CCN(C3CC4(CCN(c5cc(Oc6cnc7[nH]ccc7c6)c(C(=O)NS(=O)(=O)c6cc([N+](=O)[O-])c(NCC7(F)CCOCC7)c7ocnc67)cc5F)CC4)C3)[C@H](c3ccccc3C(C)C)C2)cn1 [compound 127, (R)-2-((1H-pyrrolo[2,3-b]pyrid-5-yl)oxy)-5-fluoro-N-((7-(((4-fluorotetrahydro-2H-pyran-4-yl)methyl)amino)-6-nitrobenzo[d]oxazol-4-yl)sulfonyl)-4-(2-(2-(2-isopropylphenyl)-4-((6-methoxypyrid-3-yl)methyl)piperazin-1-yl)-7-azaspiro[3.5]non-7-yl)benzamide] | < 10 nM
COc1ccc(CN2CCN(C3CC4(CCN(c5cc(Oc6cnc7[nH]ccc7c6)c(C(=O)NS(=O)(=O)c6cc([N+](=O)[O-])c(NC[C@H]7CC[C@](C)(O)CC7)c7c6OCO7)cc5F)CC4)C3)[C@H](c3ccccc3C(C)C)C2)cc1 [compound 113, 2-((1H-pyrrolo[2,3-b]pyrid-5-yl)oxy)-5-fluoro-N-((7-((((1r, 4r)-4-hydroxy-4-methylcyclohexyl)methyl)amino)-6-nitrobenzo[d][1,3]dioxocyclopent-4-yl)sulfonyl)-4-(2-((R)-2-(2-isopropylphenyl)-4-(4-methoxybenzyl)piperazin-1-yl)-7-azaspiro[3.5]non-7-yl)benzamide] | < 10 nM
COc1ccc(CN2CCN(C3CC4(CCN(c5cc(Oc6cnc7[nH]ccc7c6)c(C(=O)NS(=O)(=O)c6cc([N+](=O)[O-])c(NC[C@H]7CC[C@](C)(O)CC7)c7ocnc67)cn5)CC4)C3)[C@H](c3ccccc3C(C)C)C2)cc1 [compound 138, 4-((1H-pyrrolo[2,3-b]pyrid-5-yl)oxy)-N-((7-((((1r, 4r)-4-hydroxy-4-methylcyclohexyl)methyl)amino)-6-nitrobenzo[d]oxazol-4-yl)sulfonyl)-6-(2-((R)-2-(2-isopropylphenyl)-4-(4-methoxybenzyl)piperazin-1-yl)-7-azaspiro[3.5]non-7-yl) nicotinamide] | < 10 nM

Results, then the compound that gave them:

IC50 | SMILES
< 10 nM | COc1ccc(CN2CCN(C3CC4(CCN(c5ccc(C(=O)NS(=O)(=O)c6cc([N+](=O)[O-])c(NC[C@H]7CC[C@](C)(O)CC7)c7c6OCCO7)c(Oc6cnc7[nH]ccc7c6)c5)CC4)C3)[C@H](c3ccccc3C(C)C)C2)cc1 [compound 182, 2-((1H-pyrrolo[2,3-b]pyrid-5-yl)oxy)-N-((8-((((1r, 4r)-4-hydroxy-4-methylcyclohexyl)methyl)amino)-7-nitro-2,3-dihydrobenzo[b][1,4]dioxan-5-yl)sulfonyl)-4-(2-((R)-2-(2-isopropylphenyl)-4-(4-methoxybenzyl)piperazin-1-yl)-7-azaspiro[3.5]non-7-yl)benzamide]
< 10 nM | CC(C)c1ccccc1[C@@H]1CCCN1C1CC2(CCN(c3cc(Oc4cnc5[nH]ccc5c4)c(C(=O)NS(=O)(=O)c4cc([N+](=O)[O-])c(NC[C@H]5CC[C@](C)(O)CC5)c5occc45)cc3F)CC2)C1 [compound 095, 2-((1H-pyrrolo[2,3-b]pyrid-5-yl)oxy)-5-fluoro-N-((7-((((1r, 4r)-4-hydroxy-4-methylcyclohexyl)methyl)amino)-6-nitrobenzofuran-4-yl)sulfonyl)-4-(2-((S)-2-(2-isopropylphenyl)pyrrolidin-1-yl)-7-azaspiro[3.5]non-7-yl)benzamide]
< 10 nM | COc1ccc(CN2CCN(C3CC4(CCN(c5cc(Oc6cnc7[nH]ccc7c6)c(C(=O)NS(=O)(=O)c6cc([N+](=O)[O-])c(NC[C@H]7CC[C@](C)(O)CC7)c7c6OCCO7)cc5F)CC4)C3)[C@H](c3ccccc3C(C)C)C2)cc1 [compound 118, 2-((1H-pyrrolo[2,3-b]pyrid-5-yl)oxy)-5-fluoro-N-((8-((((1r, 4r)-4-hydroxy-4-methylcyclohexyl)methyl)amino)-7-nitro-2,3-dihydrobenzo[b][1,4]dioxan-5-yl)sulfonyl)-4-(2-((R)-2-(2-isopropylphenyl)-4-(4-methoxybenzyl)piperazin-1-yl)-7-azaspiro[3.5]non-7-yl)benzamide]
< 10 nM | COc1ccc(CN2CCN(C3CC4(CCN(c5cc(Oc6cnc7[nH]ccc7c6)c(C(=O)NS(=O)(=O)c6cc([N+](=O)[O-])c(NCC7(F)CCOCC7)c7c6OCC7)cc5F)CC4)C3)[C@H](c3ccccc3C(C)C)C2)cc1 [compound 142, (R)-2-((1H-pyrrolo[2,3-b]pyrid-5-yl)oxy)-5-fluoro-N-((4-(((4-fluorotetrahydro-2H-pyran-4-yl)methyl)amino)-5-nitro-2,3-dihydrobenzofuran-7-yl)sulfonyl)-4-(2-(2-(2-isopropylphenyl)-4-(4-methoxybenzyl)piperazin-1-yl)-7-azaspiro[3.5]non-7-yl)benzamide]
< 10 nM | COc1ccc(CN2CCN(C3CC4(CCN(c5cc(Oc6cnc7[nH]ccc7c6)c(C(=O)NS(=O)(=O)c6cc([N+](=O)[O-])c(NCC7(F)CCN(C(C)C)CC7)c7[nH]cnc67)cn5)CC4)C3)C(c3ccccc3C(C)C)C2)cc1 (stereo not shown) [compound 069, 4-((1H-pyrrolo[2,3-b]pyrid-5-yl)oxy)-N-((7-(((4-fluoro-1-isopropylpiperid-4-yl)methyl)amino)-6-nitro-1H-benzo[d]imidazol-4-yl)sulfonyl)-6-(2-(2-(2-isopropylphenyl)-4-(4-methoxybenzyl)piperazin-1-yl)-7-azaspiro[3.5]non-7-yl) nicotinamide]
< 10 nM | COc1ccc(CN2CCN(C3CC4(CCN(c5cc(Oc6cnc7[nH]ccc7c6)c(C(=O)NS(=O)(=O)c6cc([N+](=O)[O-])c(NC[C@H]7CC[C@](C)(O)CC7)c7occc67)cn5)CC4)C3)[C@H](c3ccccc3C(C)C)C2)cc1 [compound 139, 4-((1H-pyrrolo[2,3-b]pyrid-5-yl)oxy)-N-((7-((((1r, 4r)-4-hydroxy-4-methylcyclohexyl)methyl)amino)-6-nitrobenzofuran-4-yl)sulfonyl)-6-(2-((R)-2-(2-isopropylphenyl)-4-(4-methoxybenzyl)piperazin-1-yl)-7-azaspiro[3.5]non-7-yl) nicotinamide]
< 10 nM | COc1ccc(CN2CCN(C3CC4(CCN(c5cc(Oc6cnc7[nH]cc(F)c7c6)c(C(=O)NS(=O)(=O)c6ccc(NC[C@H]7CC[C@](C)(O)CC7)c([N+](=O)[O-])c6)cc5F)CC4)C3)C(c3ccccc3C(C)C)C2)cc1 (stereo partly shown) [compound 060, 5-fluoro-2-((3-fluoro-1H-pyrrolo[2,3-b]pyrid-5-yl)oxy)-N-((4-((((1r,4r)-4-hydroxy-4-methylcyclohexyl)methyl)amino)-3-nitrophenyl)sulfonyl)-4-(2-(2-(2-isopropylphenyl)-4-(4-methoxybenzyl)piperazin-1-yl)-7-azaspiro[3.5]non-7-yl)benzamide]
< 10 nM | COc1ccc(CN2CCN(C3CC4(CCN(c5cc(Oc6cnc7[nH]ccc7c6)c(C(=O)NS(=O)(=O)c6cc([N+](=O)[O-])c(NCC7CCOCC7)c7scnc67)cc5F)CC4)C3)[C@H](c3ccccc3C(C)C)C2)cc1 [compound 122, (R)-2-((1H-pyrrolo[2,3-b]pyrid-5-yl)oxy)-5-fluoro-4-(2-(2-(2-isopropylphenyl)-4-(4-methoxybenzyl)piperazin-1-yl)-7-azaspiro[3.5]non-7-yl)-N-((6-nitro-7-(((tetrahydro-2H-pyran-4-yl)methyl)amino)benzo[d]thiazol-4-yl)sulfonyl)benzamide]
< 10 nM | CC(C)c1ccccc1[C@@H]1CCCN1C1CC2(CCN(c3cc(Oc4cnc5[nH]ccc5c4)c(C(=O)NS(=O)(=O)c4cc([N+](=O)[O-])c(NCC5(F)CCOCC5)c5c4OCO5)cc3F)CC2)C1 [compound 101, (S)-2-((1H-pyrrolo[2,3-b]pyrid-5-yl)oxy)-5-fluoro-N-((7-(((4-fluorotetrahydro-2H-pyran-4-yl)methyl)amino)-6-nitrobenzo[d][1,3]dioxocyclopent-4-yl)sulfonyl)-4-(2-(2-(2-isopropylphenyl)pyrrolidin-1-yl)-7-azaspiro[3.5]non-7-yl)benzamide]
< 10 nM | CC(C)c1ccccc1[C@@H]1CCCN1C1CC2(CCN(c3cc(Oc4cnc5[nH]ccc5c4)c(C(=O)NS(=O)(=O)c4cc([N+](=O)[O-])c(NC[C@H]5C[C@@](C)(O)C5)c5[nH]cnc45)cn3)CC2)C1 [compound 017, 4-((1H-pyrrolo[2,3-b]pyrid-5-yl)oxy)-N-((7-((((1S,3S)-3-hydroxy-3-methylcyclobutyl)methyl)amino)-6-nitro-1H-benzo[d]imidazol-4-yl)sulfonyl)-6-(2-((S)-2-(2-isopropylphenyl)pyrrolidin-1-yl)-7-azaspiro[3.5]non-7-yl) nicotinamide]

Source: patent US20250034135A1, “ANTI-APOPTOTIC PROTEIN BCL-2 INHIBITOR, PHARMACEUTICAL COMPOSITION AND USES THEREOF” (HANGZHOU HEALZEN THERAPEUTICS CO., LTD., priority 2021, published 2025)
